# Test results taken from US20240209005A1, “BICYCLIC HETEROARYL BORONATE DERIVATIVES AS ECTONUCLEOTIDE PYROPHOSPHATASE PHOSPHODIESTERASE 1 INHIBITORS” (RIBOSCIENCE LLC, priority 2021, published 2024).
# Counter-ions that a name gives are not always drawn.
# Biological target: T1, ENPP1 (Homo sapiens, UniProt P22413)
# T1 sequence (P22413 1-925): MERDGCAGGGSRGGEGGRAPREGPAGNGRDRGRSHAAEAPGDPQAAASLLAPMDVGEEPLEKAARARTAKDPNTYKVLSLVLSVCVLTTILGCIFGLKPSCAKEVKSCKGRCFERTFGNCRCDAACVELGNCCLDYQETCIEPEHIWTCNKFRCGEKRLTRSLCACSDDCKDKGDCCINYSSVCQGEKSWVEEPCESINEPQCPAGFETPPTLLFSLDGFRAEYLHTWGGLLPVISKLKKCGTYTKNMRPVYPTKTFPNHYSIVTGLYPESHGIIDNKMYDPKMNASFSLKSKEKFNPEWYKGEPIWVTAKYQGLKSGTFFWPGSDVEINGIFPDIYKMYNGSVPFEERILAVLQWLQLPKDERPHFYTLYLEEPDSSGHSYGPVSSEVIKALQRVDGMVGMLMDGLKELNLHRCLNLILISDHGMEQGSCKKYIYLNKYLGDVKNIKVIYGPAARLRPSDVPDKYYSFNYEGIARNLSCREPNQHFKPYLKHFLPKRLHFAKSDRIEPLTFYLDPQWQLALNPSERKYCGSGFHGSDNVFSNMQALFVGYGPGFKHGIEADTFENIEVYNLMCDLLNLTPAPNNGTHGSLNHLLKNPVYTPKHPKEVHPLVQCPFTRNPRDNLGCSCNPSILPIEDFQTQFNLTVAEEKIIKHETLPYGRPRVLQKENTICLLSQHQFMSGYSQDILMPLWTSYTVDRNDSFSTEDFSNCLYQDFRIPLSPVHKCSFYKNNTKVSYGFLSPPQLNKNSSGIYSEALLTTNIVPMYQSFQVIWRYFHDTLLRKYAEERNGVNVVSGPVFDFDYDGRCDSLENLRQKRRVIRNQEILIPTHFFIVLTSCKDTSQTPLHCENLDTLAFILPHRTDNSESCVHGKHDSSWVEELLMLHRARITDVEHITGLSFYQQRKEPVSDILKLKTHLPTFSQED
# Experiment: Measurement of pNP-TMP hydrolysis by ENPP1
# Assay type: biochemical
# Conditions: purified ENPP1, pNP-TMP substrate 500 μM, KM 232 μM; Ki calculated from IC50 by Cheng-Prusoff
# Protocol: p-Nitrophenyl thymidine 5′-monophosphate (pNP-TMP) is a synthesized substrate for ENPP1. The ENPP1 enzyme activity assay with pNP-TMP substrate was conducted as follows:
# Incubation of ENPP1 with compounds was set at 25° C. for 10 min. […] For each compound dilution, wells with assay buffer (50 mM Tris-HCl, pH8.8, 250 mM NaCl, 0.1 mg/ml BSA, 1% DMSO) only but no ENPP1 were included as controls for subtraction of test compound derived absorbance at 405 nm.
# Absorbance at 405 nm was recorded immediately in kinetic mode by PerkinElmer 2300 Enspire multimode plate reader.
# For each inhibitor, the specific ENPP1 activity was calculated using the following equation: ENPP1 activity (pmol/min/g)=Adjusted Vmax (OD405 nm/min) X conversion factor (pmol/OD405 nm)/amount of enzyme (g)
# Adjusted Vmax=V0×(Km+(S))/(S).
# V0=(OD405 nm with ENPP1−OD405 nm ENPP1 blank)/minutes. OD405 nm was plotted, with blank subtracted, against time (minutes), the initial linear rate is V0. […]
# The slope is the conversion factor. The percent ENPP1 activity for each sample was calculated using the following equation:
# % enzyme activity=sample enzyme activity/MAX Activity×100%.
# To determine the IC50 for each compound, compound concentration values and percent enzyme activity values were inserted into GraphPad Prism (GraphPad Prism version 7.0 for Windows, GraphPad Software, La Jolla California USA, www.graphpad.com), and Prism's Transform analysis was used to convert the x-axis values (compound concentration) to logarithms. A sigmoidal variable slope nonlinear regression analysis was performed using the following equation: Y=Bottom+(Top−Bottom)/(1+10^((LogIC50−X)*HillSlope)).
row,SMILES,Ki
1,"O=C(NCCO)c1c[nH]c2c(NCc3ccc(B(O)O)cc3)ncnc12 [compound 13, 4-[([7-[(2-hydroxyethyl)carbamoyl]-5H-pyrrolo[3,2-d]-pyrimidin-4-yl]amino)methyl]phenylboronic acid]",< 10000 nM
2,"CC(C)c1nc(NCc2ccc(B(O)O)cc2)c2[nH]ncc2n1 [compound 27, 4-[([5-isopropyl-1H-pyrazolo[4,3-d]pyrimidin-7-yl]-amino)methyl]phenylboronic acid formic acid salt]",< 1000 nM
3,"Cn1ncc2nc(-c3ccccc3)nc(NCc3ccc(B(O)O)cc3)c21 [compound 29, 4-[([1-methyl-5-phenylpyrazolo[4,3-d]pyrimidin-7-yl]-amino)-methyl]phenylboronic acid]",< 1000 nM

# Results, then the molecule that gave them:
row,Ki,SMILES
1,< 100 nM,"Cn1ncc2nc(/C=C/c3cccnc3)nc(NCc3ccc(B(O)O)cc3)c21 [compound 35, 4-[([1-methyl-5-[(E)-2-(pyridin-3-yl)ethenyl]pyrazolo[4,3-d]pyrimidin-7-yl]amino)methyl]phenylboronic acid]"
2,< 100 nM,"OB(O)c1ccc(CNc2ccnc3cn[nH]c23)cc1 [compound 37, 4-([1H-pyrazolo[4,3-b]pyridin-7-ylamino]methyl)phenyl-boronic acid]"
3,< 100 nM,"N#Cc1csc2c(NCc3ccc(B(O)O)cc3)ncnc12 [compound 40, 4-[([7-cyanothieno[3,2-d]pyrimidin-4-yl]amino)-methyl]phenylboronic acid]"

# System: HGS tumor model
# Experiment: Anti-tumor activity in HGS tumor model
# Assay type: in vivo
# Conditions: animals treated with 20/kg of compound, day 42 after inoculation
# Description: […]
row,SMILES,tumor size
1,"C=CC(=O)N1CCN(CCCn2c(=O)c(-c3c(Cl)c(OC)cc(OC)c3Cl)cc3cnc(NC)nc32)CC1 [8-(3-(4-acryloylpiperazin-1-yl)propyl)-6-(2,6-dichloro-3,5-dimethoxyphenyl)-2-(methylamino)pyrido[2,3-d]pyrimidin-7(8H)-one]",55 mm3
